In article PMC6300978 (Chemico-biological interactions, 2015):

How the values were obtained:
CYP3A4 = conditions: earlier study; cited from earlier work
[1] = GA glucuronidation kinetics in human intestinal microsomes; format: in vitro ADME; conditions: for microsomal CLint: human intestinal microsomes
[2] = GA glucuronidation kinetics in rat intestinal microsomes; format: in vitro ADME, Sprague-Dawley rats
recombinant human UGT2B7 = target: T1, recombinant human UGT2B7 (Homo sapiens, UniProt P16662); assay: GA glucuronidation by recombinant UGT2B7; format: in vitro ADME; conditions: UGT2B7, whole range of substrate concentrations
T1 sequence (P16662 24-529): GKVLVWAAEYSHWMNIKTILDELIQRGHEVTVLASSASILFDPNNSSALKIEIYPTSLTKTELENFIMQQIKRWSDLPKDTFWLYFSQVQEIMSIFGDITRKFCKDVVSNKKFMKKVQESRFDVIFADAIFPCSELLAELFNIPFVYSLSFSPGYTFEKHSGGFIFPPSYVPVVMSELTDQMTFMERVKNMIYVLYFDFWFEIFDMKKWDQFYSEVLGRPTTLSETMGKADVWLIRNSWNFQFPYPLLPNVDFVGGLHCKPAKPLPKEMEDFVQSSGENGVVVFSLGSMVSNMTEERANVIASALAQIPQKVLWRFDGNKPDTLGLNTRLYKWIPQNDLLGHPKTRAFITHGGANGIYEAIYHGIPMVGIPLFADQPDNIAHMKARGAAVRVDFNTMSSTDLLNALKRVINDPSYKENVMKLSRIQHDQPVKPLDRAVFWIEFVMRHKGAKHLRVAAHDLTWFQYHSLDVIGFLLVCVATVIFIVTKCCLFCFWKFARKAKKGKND

[3] = GA glucuronidation kinetics in rat liver microsomes; format: in vitro ADME, Sprague-Dawley rats; conditions: for microsomal CLint: rat liver microsomes
UGT1A1 = target: T2, UGT1A1 (Homo sapiens, UniProt P22309); assay: GA glucuronidation kinetics by recombinant UGT1A1; format: in vitro ADME; conditions: recombinant human UGT1A1, pH 7.4, Clint
T2 sequence (P22309 26-533): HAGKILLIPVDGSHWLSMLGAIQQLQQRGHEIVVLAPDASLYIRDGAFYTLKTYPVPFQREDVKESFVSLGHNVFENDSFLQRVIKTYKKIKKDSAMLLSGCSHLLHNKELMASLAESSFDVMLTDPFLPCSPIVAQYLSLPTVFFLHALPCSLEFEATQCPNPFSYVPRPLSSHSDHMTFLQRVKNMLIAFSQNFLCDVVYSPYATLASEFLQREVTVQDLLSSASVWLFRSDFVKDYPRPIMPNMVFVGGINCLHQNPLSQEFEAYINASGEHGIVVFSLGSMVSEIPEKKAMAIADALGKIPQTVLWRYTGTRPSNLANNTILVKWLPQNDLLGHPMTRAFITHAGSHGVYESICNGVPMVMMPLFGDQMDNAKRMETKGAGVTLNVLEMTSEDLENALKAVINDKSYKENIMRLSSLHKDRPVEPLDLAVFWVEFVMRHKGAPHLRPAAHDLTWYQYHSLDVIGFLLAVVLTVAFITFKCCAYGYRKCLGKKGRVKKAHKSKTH

UGT1A3 = target: T3, UGT1A3 (Homo sapiens, UniProt P35503); assay: GA glucuronidation kinetics by recombinant UGT1A3; format: in vitro ADME; conditions: recombinant human UGT1A3, pH 7.4
T3 sequence (P35503 29-534): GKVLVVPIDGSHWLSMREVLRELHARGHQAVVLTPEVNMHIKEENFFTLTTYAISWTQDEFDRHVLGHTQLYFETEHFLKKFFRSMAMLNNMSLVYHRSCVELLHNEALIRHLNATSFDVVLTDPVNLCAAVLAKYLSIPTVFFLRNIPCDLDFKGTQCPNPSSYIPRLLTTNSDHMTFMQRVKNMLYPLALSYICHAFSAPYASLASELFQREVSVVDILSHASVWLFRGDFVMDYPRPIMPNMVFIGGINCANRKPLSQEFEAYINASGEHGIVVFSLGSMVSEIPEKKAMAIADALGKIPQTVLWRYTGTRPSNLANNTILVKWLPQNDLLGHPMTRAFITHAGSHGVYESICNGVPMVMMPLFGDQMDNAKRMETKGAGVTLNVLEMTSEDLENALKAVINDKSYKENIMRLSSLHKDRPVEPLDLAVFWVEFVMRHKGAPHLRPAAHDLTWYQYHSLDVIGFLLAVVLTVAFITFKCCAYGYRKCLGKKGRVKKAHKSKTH

recombinant human UGT1A9 = target: T4, recombinant human UGT1A9 (Homo sapiens, UniProt O60656); assay: GA glucuronidation by recombinant UGT1A9; format: in vitro ADME; conditions: UGT1A9, whole range of substrate concentrations
T4 sequence (O60656 26-530): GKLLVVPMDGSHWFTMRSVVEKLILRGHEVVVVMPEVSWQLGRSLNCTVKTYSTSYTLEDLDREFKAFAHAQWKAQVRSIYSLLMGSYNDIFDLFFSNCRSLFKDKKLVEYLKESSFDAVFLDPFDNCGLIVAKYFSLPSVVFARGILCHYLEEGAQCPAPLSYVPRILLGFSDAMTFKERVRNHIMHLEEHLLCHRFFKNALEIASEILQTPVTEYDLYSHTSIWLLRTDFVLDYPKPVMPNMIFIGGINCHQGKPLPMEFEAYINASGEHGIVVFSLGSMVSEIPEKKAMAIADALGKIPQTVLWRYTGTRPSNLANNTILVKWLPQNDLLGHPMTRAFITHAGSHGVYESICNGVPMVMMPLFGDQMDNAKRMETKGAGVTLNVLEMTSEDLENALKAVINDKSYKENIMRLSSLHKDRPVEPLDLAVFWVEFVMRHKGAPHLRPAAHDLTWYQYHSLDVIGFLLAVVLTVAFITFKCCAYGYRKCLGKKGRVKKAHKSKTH

[4] = GA glucuronidation kinetics in beagle dog liver microsomes; format: in vitro ADME, beagle dogs; conditions: DLM; for microsomal CLint / Km at 30 min: beagle, dog; for microsomal CLint: dog liver microsomes; for Km at 30 min: liver microsomes, pH 7.4, Km (KS), Michaelis–Menten
[5] = GA glucuronidation kinetics in cynomolgus monkey liver microsomes; format: in vitro ADME, cynomolgus monkeys; conditions: CyLM; for Km at 60 min: cynomolgus monkey, liver microsomes, pH 7.4, Km (KS), Michaelis–Menten

- Clint of HIM relative to HLM ([1]; GA glucuronidation, Table 2): more than 100 fold
- microsomal CLint ([1]; both, human, pH 7.4, Clint, HIM, M2 formation): 2010 µL/min/mg
- microsomal CLint ([1]; both, human, pH 7.4, Clint, HIM, M2 formation (text)): 2000 µL/min/mg
- microsomal CLint ([1]; both, human, pH 7.4, Cltotal, HIM): 2010 µL/min/mg
- Km at 20 min ([1]; both, human, intestinal microsomes, pH 7.4): 8.3 ± 3.5 µM
- Km at 20 min ([2]; male, Sprague-Dawley, rat, intestinal microsomes, pH 7.4): 3.8 ± 1.1 µM
- microsomal CLint ([2]; male, Sprague-Dawley, rat, rat intestinal microsomes, pH 7.4, Cltotal, RIM): 5000 µL/min/mg
- GA glucuronidation activity (recombinant human UGT2B7): < 0.04 nmol/min/mg
- Km at 20 min ([3]; male, Sprague-Dawley, rat, liver microsomes, pH 7.4): 3.9 ± 1.9 µM
- microsomal CLint ([3]; male, Sprague-Dawley, rat, pH 7.4, Clint, RLM, M2 formation): 4100 µL/min/mg
- microsomal CLint ([3]; male, Sprague-Dawley, rat, pH 7.4, Clint, RLM, M2 formation (text)): 4000 µL/min/mg
- microsomal CLint ([3]; male, Sprague-Dawley, rat, pH 7.4, Cltotal, RLM): 4100 µL/min/mg
- microsomal CLint (UGT1A1; UGT1A1, M1 formation): 22 µL/min/mg
- microsomal CLint (UGT1A1; UGT1A1, M2 formation): 5 µL/min/mg
- microsomal CLint (UGT1A3): 29 µL/min/mg
- GA glucuronidation activity (recombinant human UGT1A9): < 0.04 nmol/min/mg
- microsomal CLint ([4]; pH 7.4, Clint, M1 formation): 71 µL/min/mg
- microsomal CLint ([4]; pH 7.4, Clint, M2 formation): 214 µL/min/mg
- microsomal CLint ([4]; pH 7.4, Cltotal, M1 + M2): 285 µL/min/mg
- Km at 30 min ([4]; M1 formation): 34 ± 12 µM
- Km at 30 min ([4]; M2 formation): 29 ± 12 µM
- Km at 60 min ([5]; M1 formation): 10 ± 3 µM
- Km at 60 min ([5]; M2 formation): 35 ± 11 µM
Compound: CC1(C)C=Cc2c(ccc3c2OC[C@@H](c2ccc(O)cc2O)C3)O1 [GA, glabridin]
- inhibition of CYP3A4 (CYP3A4): mechanism-based inhibitor
- Vmax ([1]; HIM, M2 formation): 16.7 ± 7.4 nmol/min/mg
- KSI ([2]; RIM, M2 formation): 5.3 ± 2.5 µM
- Vmax ([2]; RIM, M2 formation): 19 ± 6 nmol/min/mg
- KSI ([3]; RLM, M2 formation): 7.6 ± 3.0 µM
- Vmax ([3]; RLM, M2 formation): 16 ± 5 nmol/min/mg
- Vmax ([4]; M1 formation): 2.4 ± 0.5 nmol/min/mg
- Vmax ([4]; M2 formation): 6.2 ± 1.3 nmol/min/mg
- Vmax ([5]; M1 formation): 0.051 ± 0.005 nmol/min/mg
- Vmax ([5]; M2 formation): 0.51 ± 0.09 nmol/min/mg
